Key:
recombinant LOX III = molecular target: T1, recombinant LOX III (Triticum aestivum, UniProt F1DTB8); assay: conjugated diene absorbance at […] nm, Lineweaver-Burk; assay type: biochemical; details: crude yeast extract in 50 mM phosphate pH 7.6 (extraction buffer); methods print linoleic acid range as 10 mM to 70 mM, conflicting with Km in µM
T1 construct: gene LOX3; full length, 878 residues, 95 kDa; codon-optimised; LOX III-2A-mClover3 in pGK423, S. cerevisiae BY4741; crude soluble extract
T1 sequence (F1DTB8 1-878): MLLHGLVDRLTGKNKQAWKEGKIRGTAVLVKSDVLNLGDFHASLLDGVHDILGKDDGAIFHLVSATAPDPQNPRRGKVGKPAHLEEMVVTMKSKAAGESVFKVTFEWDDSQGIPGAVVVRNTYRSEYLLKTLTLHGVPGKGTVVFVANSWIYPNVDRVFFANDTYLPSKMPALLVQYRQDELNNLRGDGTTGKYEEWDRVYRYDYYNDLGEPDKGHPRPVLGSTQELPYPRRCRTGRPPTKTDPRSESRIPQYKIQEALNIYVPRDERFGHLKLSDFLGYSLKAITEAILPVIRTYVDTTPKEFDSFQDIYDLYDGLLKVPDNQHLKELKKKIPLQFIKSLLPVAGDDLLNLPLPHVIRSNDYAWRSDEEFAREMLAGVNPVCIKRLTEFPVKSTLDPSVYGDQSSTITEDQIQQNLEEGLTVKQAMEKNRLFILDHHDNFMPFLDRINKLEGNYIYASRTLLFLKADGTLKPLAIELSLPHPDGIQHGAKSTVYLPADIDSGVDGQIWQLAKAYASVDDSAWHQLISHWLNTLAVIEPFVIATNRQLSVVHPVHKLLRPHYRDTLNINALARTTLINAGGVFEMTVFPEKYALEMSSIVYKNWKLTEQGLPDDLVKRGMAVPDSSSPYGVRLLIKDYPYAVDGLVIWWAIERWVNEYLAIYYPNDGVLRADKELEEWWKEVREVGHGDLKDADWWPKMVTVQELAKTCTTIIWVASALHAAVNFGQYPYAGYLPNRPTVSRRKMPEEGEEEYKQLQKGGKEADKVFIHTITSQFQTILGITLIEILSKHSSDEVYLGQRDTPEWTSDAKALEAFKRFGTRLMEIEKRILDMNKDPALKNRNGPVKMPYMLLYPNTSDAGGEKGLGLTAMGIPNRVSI

recombinant Mini-LOX III = molecular target: T2, recombinant Mini-LOX III (Triticum aestivum, UniProt F1DTB8); assay: as above; assay type: biochemical; details: crude yeast extract in 50 mM phosphate pH 7.6 (extraction buffer); methods print linoleic acid range as 10 mM to 70 mM, conflicting with Km in µM
T2 construct: gene LOX3; cut placed by alignment to soybean Mini-LOX STPIEFHSFQ; pGK423, S. cerevisiae BY4741; crude soluble extract
T2 sequence (F1DTB8 343-878 limits assumed): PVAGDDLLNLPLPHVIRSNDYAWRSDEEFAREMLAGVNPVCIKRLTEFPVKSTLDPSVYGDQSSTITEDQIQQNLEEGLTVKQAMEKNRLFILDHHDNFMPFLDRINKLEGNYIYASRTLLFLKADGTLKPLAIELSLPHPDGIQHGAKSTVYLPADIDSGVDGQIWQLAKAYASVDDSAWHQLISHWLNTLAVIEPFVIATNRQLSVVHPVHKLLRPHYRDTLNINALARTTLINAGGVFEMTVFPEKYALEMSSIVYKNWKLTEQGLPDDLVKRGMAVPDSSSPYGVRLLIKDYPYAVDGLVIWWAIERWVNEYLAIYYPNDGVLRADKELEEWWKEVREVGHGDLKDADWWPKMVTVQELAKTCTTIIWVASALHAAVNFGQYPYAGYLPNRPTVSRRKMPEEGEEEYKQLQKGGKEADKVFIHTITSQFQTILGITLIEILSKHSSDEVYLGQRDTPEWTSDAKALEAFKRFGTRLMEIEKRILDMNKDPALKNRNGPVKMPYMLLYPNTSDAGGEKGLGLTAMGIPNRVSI

Km (recombinant LOX III): 25.7 µM | Km (recombinant Mini-LOX III): 21.3 µM
Compound: CCCCC/C=C\C/C=C\CCCCCCCC(=O)O [linoleic acid]
